The text below walks through data of patent US20190322676A1, “CERAMIDE GALACTOSYLTRANSFERASE INHIBITORS FOR THE TREATMENT OF DISEASE” (BioMarin Pharmaceutical Inc., priority 2016, published 2019).

This assay concerns the target T1, human CGT (ceramide galactosyltransferase), CHO/CGT lysate (Homo sapiens, UniProt Q16880).
T1 construct: Full-length human CGT cDNA was cloned into the BamH1/Xho1 site of pcDNA3.1 (+); expressed in transfected cells; host or cells: Chinese hamster ovary (CHO) cells; lysate prepared with M-PER
T1 sequence (Q16880 21-541): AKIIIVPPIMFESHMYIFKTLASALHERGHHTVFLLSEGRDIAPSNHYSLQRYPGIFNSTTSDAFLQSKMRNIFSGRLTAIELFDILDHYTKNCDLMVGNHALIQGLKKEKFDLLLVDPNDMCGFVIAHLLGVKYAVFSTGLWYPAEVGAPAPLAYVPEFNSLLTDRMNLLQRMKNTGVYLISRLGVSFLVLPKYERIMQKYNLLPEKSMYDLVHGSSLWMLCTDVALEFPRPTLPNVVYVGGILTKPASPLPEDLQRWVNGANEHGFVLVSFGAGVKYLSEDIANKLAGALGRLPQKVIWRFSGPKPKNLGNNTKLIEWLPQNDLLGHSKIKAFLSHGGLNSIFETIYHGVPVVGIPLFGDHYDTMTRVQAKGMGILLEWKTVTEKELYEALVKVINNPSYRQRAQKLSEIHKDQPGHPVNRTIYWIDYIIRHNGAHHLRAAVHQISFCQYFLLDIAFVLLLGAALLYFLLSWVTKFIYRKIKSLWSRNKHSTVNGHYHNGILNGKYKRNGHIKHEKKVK
Description: CGT enzyme assay, RapidFire/MS/MS readout (Table 1 ranges with one asterisk *). To be noted: RapidFire method (range with one asterisk *). It counts as biochemical. Summed up: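 Lysate (4 μg) of CHO cells transfected with full-length human CGT incubated 1 h at 37 °C with compound (0.001–50 μM) in pH 7.2 HEPES buffer with 10 μM C6-NBD-dihydro-ceramide, 17.5 μM UDP-galactose, Mg2+/Mn2+, CHAPS, BSA, 0.5% DMSO; ** set also contained 0.01% Tween 80. Product quantified by RapidFire/MS/MS, normalized to internal standard; IC50 from sigmoidal variable-slope fits.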

The structures appear in SMILES notation. Where a name gives a salt, the structure may show the parent alone.

Take `NC1CC2CCC(C1)N2C(=O)[C@@H](NS(=O)(=O)c1ccc(OCC2CCCCC2)cc1)C(F)(F)c1ccc(-c2ccc(Cl)s2)cc1` (stereo partly drawn) [Compound 104-1, N-((2R)-3-(3-amino-8-azabicyclo[3.2.1]octan-8-yl)-1-(4-(5-chlorothiophen-2-yl)phenyl)-1,1-difluoro-3-oxopropan-2-yl)-4-(cyclohexylmethoxy) benzenesulfonamide]: the 50% inhibitory concentration (IC50) was in the range of 1 to 10 µM. For `NC1CC2CCC(C1)N2C(=O)[C@H](NS(=O)(=O)c1ccc(OCC2CCCCC2)cc1)C(F)(F)c1ccc(-c2ccc(Cl)s2)cc1` (stereo partly drawn) [Compound 104-2, N-((2S)-3-(3-amino-8-azabicyclo[3.2.1]octan-8-yl)-1-(4-(5-chlorothiophen-2-yl)phenyl)-1,1-difluoro-3-oxopropan-2-yl)-4-(cyclohexylmethoxy)benzenesulfonamide], the concentration for half-maximal inhibition (IC50) was 10 to 30 µM. In the case of `NC1CC2CCC(C1)N2C(=O)[C@@H](NS(=O)(=O)c1ccc(OCC2CCCCC2)cc1)C(F)(F)c1ccc(OC2CCCCC2)cc1` (stereo partly drawn) [Compound 105-1, N-((2R)-3-(3-amino-8-azabicyclo[3.2.1]octan-8-yl)-1-(4-(cyclohexyloxy)phenyl)-1,1-difluoro-3-oxopropan-2-yl)-4-(cyclohexylmethoxy) benzenesulfonamide] it was below 1 µM; in that of `NC1CC2CCC(C1)N2C(=O)[C@H](NS(=O)(=O)c1ccc(OCC2CCCCC2)cc1)C(F)(F)c1ccc(OC2CCCCC2)cc1` (stereo partly drawn) [Compound 105-2, N-((2S)-3-(3-amino-8-azabicyclo[3.2.1]octan-8-yl)-1-(4-(cyclohexyloxy)phenyl)-1,1-difluoro-3-oxopropan-2-yl)-4-(cyclohexylmethoxy)benzenesulfonamide], 10 to 30 µM.

`CN([C@H](C(=O)N1C2CCC1CC(N)C2)C(F)(F)c1ccc(OCc2ccccc2)cc1)S(=O)(=O)c1ccc2cc(OC3CCCC3)ccc2c1` (stereo partly drawn) [Compound 106-1, N-((2R)-3-(3-amino-8-azabicyclo[3.2.1]octan-8-yl)-1-(4-(benzyloxy)phenyl)-1,1-difluoro-3-oxopropan-2-yl)-6-(cyclopentyloxy)-N-methylnaphthalene-2-sulfonamide]: the IC50 fell in the range of 1 to 10 µM.

In turn, `CN([C@@H](C(=O)N1C2CCC1CC(N)C2)C(F)(F)c1ccc(OCc2ccccc2)cc1)S(=O)(=O)c1ccc2cc(OC3CCCC3)ccc2c1` (stereo partly drawn) [Compound 106-2, N-((2S)-3-(3-amino-8-azabicyclo[3.2.1]octan-8-yl)-1-(4-(benzyloxy)phenyl)-1,1-difluoro-3-oxopropan-2-yl)-6-(cyclopentyloxy)-N-methylnaphthalene-2-sulfonamide] returned an IC50 of 1 to 10 µM. As for `NC1CC2CCC(C1)N2C(=O)[C@@H](NS(=O)(=O)c1ccc2cc(OC3CCCC3)ccc2c1)C(F)(F)c1cccc(Oc2ccccc2)c1` (stereo partly drawn) [Compound 107-1, N-((2R)-3-(3-amino-8-azabicyclo[3.2.1]octan-8-yl)-1,1-difluoro-3-oxo-1-(3-phenoxyphenyl)propan-2-yl)-6-(cyclopentyloxy)naphthalene-2-sulfonamide], the figure is below 1 µM; as for `NC1CC2CCC(C1)N2C(=O)[C@H](NS(=O)(=O)c1ccc2cc(OC3CCCC3)ccc2c1)C(F)(F)c1cccc(Oc2ccccc2)c1` (stereo partly drawn) [Compound 107-2, N-((2S)-3-(3-amino-8-azabicyclo[3.2.1]octan-8-yl)-1,1-difluoro-3-oxo-1-(3-phenoxyphenyl)propan-2-yl)-6-(cyclopentyloxy)naphthalene-2-sulfonamide], 1 to 10 µM; as for `NC1CCN(C(=O)[C@@H](NS(=O)(=O)c2ccc3cc(OC4CCCC4)ccc3c2)C(F)(F)c2cccc(Oc3ccccc3)c2)CC1` [Compound 108-1, (R)—N-(3-(4-aminopiperidin-1-yl)-1,1-difluoro-3-oxo-1-(3-phenoxyphenyl)propan-2-yl)-6-(cyclopentyloxy)naphthalene-2-sulfonamide], below 1 µM. Regarding `NC1CCN(C(=O)[C@H](NS(=O)(=O)c2ccc3cc(OC4CCCC4)ccc3c2)C(F)(F)c2cccc(Oc3ccccc3)c2)CC1` [Compound 108-2, (S)—N-(3-(4-aminopiperidin-1-yl)-1,1-difluoro-3-oxo-1-(3-phenoxyphenyl)propan-2-yl)-6-(cyclopentyloxy)naphthalene-2-sulfonamide], the IC50 lay in the range of 1 to 10 µM. Consider `NC1CCN(C(=O)[C@@H](NS(=O)(=O)c2ccc(OCC3CCCCC3)cc2)C(F)(F)c2cccc(Oc3ccccc3)c2)CC1` [Compound 109-1, (R)—N-(3-(4-aminopiperidin-1-yl)-1,1-difluoro-3-oxo-1-(3-phenoxyphenyl)propan-2-yl)-4-(cyclohexylmethoxy)benzenesulfonamide trifluoroacetate], for which the IC50 was in the range of 1 to 10 µM. The compound `NC1CCN(C(=O)[C@H](NS(=O)(=O)c2ccc(OCC3CCCCC3)cc2)C(F)(F)c2cccc(Oc3ccccc3)c2)CC1` [Compound 109-2, (S)—N-(3-(4-aminopiperidin-1-yl)-1,1-difluoro-3-oxo-1-(3-phenoxyphenyl)propan-2-yl)-4-(cyclohexylmethoxy) benzenesulfonamide trifluoroacetate] gave an IC50 of 1 to 10 µM. Take `CN([C@H](C(=O)N1C2CCC1CC(N)C2)C(F)(F)c1ccc(O)cc1)S(=O)(=O)c1ccc2cc(OC3CCCC3)ccc2c1` (stereo partly drawn) [Compound 110-1, N-((2R)-3-(3-amino-8-azabicyclo[3.2.1]octan-8-yl)-1,1-difluoro-1-(4-hydroxyphenyl)-3-oxopropan-2-yl)-6-(cyclopentyloxy)-N-methylnaphthalene-2-sulfonamide trifluoroacetate]: the concentration for half-maximal inhibition (IC50) fell in the range of 1 to 10 µM.

`CN([C@@H](C(=O)N1C2CCC1CC(N)C2)C(F)(F)c1ccc(O)cc1)S(=O)(=O)c1ccc2cc(OC3CCCC3)ccc2c1` (stereo partly drawn) [Compound 110-2, N-((2S)-3-(3-amino-8-azabicyclo[3.2.1]octan-8-yl)-1,1-difluoro-1-(4-hydroxyphenyl)-3-oxopropan-2-yl)-6-(cyclopentyloxy)-N-methylnaphthalene-2-sulfonamide trifluoroacetate] returned a half-inhibitory concentration (IC50) of 30 to 100 µM. For `CN([C@H](C(=O)N1C2CCC1CC(N)C2)C(F)(F)c1cccc(Oc2ccccc2)c1)S(=O)(=O)c1ccc2cc(OC3CCCC3)ccc2c1` (stereo partly drawn) [Compound 111-1, N-((2R)-3-(3-amino-8-azabicyclo[3.2.1]octan-8-yl)-1,1-difluoro-3-oxo-1-(3-phenoxyphenyl)propan-2-yl)-6-(cyclopentyloxy)-N-methylnaphthalene-2-sulfonamide trifluoroacetate], the IC50 is below 1 µM. With `CN([C@@H](C(=O)N1C2CCC1CC(N)C2)C(F)(F)c1cccc(Oc2ccccc2)c1)S(=O)(=O)c1ccc2cc(OC3CCCC3)ccc2c1` (stereo partly drawn) [Compound 111-2, N-((2S)-3-(3-amino-8-azabicyclo[3.2.1]octan-8-yl)-1,1-difluoro-3-oxo-1-(3-phenoxyphenyl)propan-2-yl)-6-(cyclopentyloxy)-N-methylnaphthalene-2-sulfonamide trifluoroacetate], the concentration for half-maximal inhibition (IC50) lay within 10 to 30 µM. As for `NC1CCN(C(=O)[C@@H](NS(=O)(=O)c2ccc3cc(OC4CCCC4)ccc3c2)C(F)(F)c2ccc(-c3ccc(Cl)s3)cc2)CC1` [Compound 112-1, (R)—N-(3-(4-aminopiperidin-1-yl)-1-(4-(5-chlorothiophen-2-yl)phenyl)-1,1-difluoro-3-oxopropan-2-yl)-6-(cyclopentyloxy)naphthalene-2-sulfonamide trifluoroacetate], the 50% inhibitory concentration (IC50) is below 1 µM. With `NC1CCN(C(=O)[C@H](NS(=O)(=O)c2ccc3cc(OC4CCCC4)ccc3c2)C(F)(F)c2ccc(-c3ccc(Cl)s3)cc2)CC1` [Compound 112-2, (S)—N-(3-(4-aminopiperidin-1-yl)-1-(4-(5-chlorothiophen-2-yl)phenyl)-1,1-difluoro-3-oxopropan-2-yl)-6-(cyclopentyloxy)naphthalene-2-sulfonamide trifluoroacetate], the half-maximal inhibitory concentration (IC50) was 1 to 10 µM.

`NC1CC2CCC(C1)N2C(=O)[C@@H](NS(=O)(=O)c1ccc(OCC2CCCCC2)cc1)C(F)(F)c1cccc(Oc2ccccc2)c1` (stereo partly drawn) [Compound 113-1, N-((2R)-3-(3-amino-8-azabicyclo[3.2.1]octan-8-yl)-1,1-difluoro-3-oxo-1-(3-phenoxyphenyl)propan-2-yl)-4-(cyclohexylmethoxy)benzenesulfonamide trifluoroacetate]: the IC50 is below 1 µM. `NC1CC2CCC(C1)N2C(=O)[C@H](NS(=O)(=O)c1ccc(OCC2CCCCC2)cc1)C(F)(F)c1cccc(Oc2ccccc2)c1` (stereo partly drawn) [Compound 113-2, N-((2S)-3-(3-amino-8-azabicyclo[3.2.1]octan-8-yl)-1,1-difluoro-3-oxo-1-(3-phenoxyphenyl)propan-2-yl)-4-(cyclohexylmethoxy) benzenesulfonamide trifluoroacetate]: the IC50 is 1 to 10 µM. `CCOc1ccc(C(F)(F)[C@@H](C(=O)N2C3CCC2CC(N)C3)N(C)S(=O)(=O)c2ccc3cc(OC4CCCC4)ccc3c2)cc1` (stereo partly drawn) [Compound 114-1, N-((2R)-3-(3-amino-8-azabicyclo[3.2.1]octan-8-yl)-1-(4-ethoxyphenyl)-1,1-difluoro-3-oxopropan-2-yl)-6-(cyclopentyloxy)-N-methylnaphthalene-2-sulfonamide] gave an IC50 of 1 to 10 µM.
